Test results published in ChEMBL document CHEMBL1201862, “PubChem BioAssay data set” (2004).
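96-well plates; 48 h exposure; 5 concentrations. Endpoints by linear interpolation between flanking doses. Not reached: highest tested concentration assigned. GI50: concentration for 50% inhibition of growth.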 The source made the active and inactive calls. Cut-off read from the data, not from the text of the source: active = GI50 up to about 1.1 µM and inactive = higher.

Assays:
Assay in all cases: DTP human tumour cell line panel, 48 h
A498 = tested on: A498
RXF 631 = tested on: RXF 631
HOP-92 = tested on: HOP-92
RPMI-8226 = tested on: RPMI-8226
SK-MEL-5 = tested on: SK-MEL-5
OVCAR-5 = tested on: OVCAR-5
K562 = tested on: K562
SF-539 = tested on: SF-539
TK-10 = tested on: TK-10
SNB-75 = tested on: SNB-75
OVCAR-8 = tested on: OVCAR-8
CAKI-1 = tested on: CAKI-1
SNB-19 = tested on: SNB-19
U-251 = tested on: U-251
XF498 = tested on: XF498
RXF 393 = tested on: RXF 393
HCT-15 = tested on: HCT-15
NCI-H226 = tested on: NCI-H226
NCI-H23 = tested on: NCI-H23
SK-MEL-28 = tested on: SK-MEL-28
DMS-273 = tested on: DMS-273
KM-20L2 = tested on: KM-20L2
SNB-78 = tested on: SNB-78
HCT-116 = tested on: HCT-116
SF-268 = tested on: SF-268
SW-620 = tested on: SW-620
KM12 = tested on: KM12
UACC-257 = tested on: UACC-257
SF-295 = tested on: SF-295
SK-MEL-2 = tested on: SK-MEL-2
Malme-3M = tested on: Malme-3M
HT-29 = tested on: HT-29
LOX IMVI = tested on: LOX IMVI
A549 = tested on: A549
DMS-114 = tested on: DMS-114
UO-31 = tested on: UO-31
M14 = tested on: M14
COLO 205 = tested on: COLO 205
HL-60 = tested on: HL-60
EKVX = tested on: EKVX
IGROV-1 = tested on: IGROV-1
CCRF-CEM = tested on: CCRF-CEM
DLD-1 = tested on: DLD-1
SR = tested on: SR
SN12C = tested on: SN12C
NCI-H460 = tested on: NCI-H460
MOLT-4 = tested on: MOLT-4
HOP-18 = tested on: HOP-18
ACHN = tested on: ACHN
OVCAR-4 = tested on: OVCAR-4
786-0 = tested on: 786-0
HOP-62 = tested on: HOP-62
UACC-62 = tested on: UACC-62
OVCAR-3 = tested on: OVCAR-3
HCC 2998 = tested on: HCC 2998
LXFL 529 = tested on: LXFL 529
M19-MEL = tested on: M19-MEL
SK-OV-3 = tested on: SK-OV-3
NCI-H522 = tested on: NCI-H522

For `COc1nc(NC2OCC(OC(C)=O)C(OC(C)=O)C2OC(C)=O)c(/N=C(\C)C(C)=O)c(=O)n1C` (configuration not stated), the GI50 (A498) was > 100 µM (inactive), the GI50 (RXF 631) was > 100 µM (inactive) and the GI50 (HOP-92) was > 100 µM (inactive). For the same compound, the GI50 (RPMI-8226) was > 100 µM (inactive), the GI50 (SK-MEL-5) was > 100 µM (inactive) and the GI50 (OVCAR-5) was > 100 µM (inactive). The GI50 (K562) was > 100 µM (inactive), the GI50 (SF-539) was > 100 µM (inactive) and the GI50 (TK-10) was > 100 µM (inactive). For the same compound, the GI50 (SNB-75) was > 100 µM (inactive), the GI50 (OVCAR-8) was > 100 µM (inactive) and the GI50 (CAKI-1) was > 100 µM (inactive). The GI50 (SNB-19) was > 100 µM (inactive), the GI50 (U-251) was > 100 µM (inactive) and the GI50 (XF498) was > 100 µM (inactive). For the same compound, the GI50 (RXF 393) was > 100 µM (inactive), the GI50 (HCT-15) was greater than 100 µM and the GI50 (NCI-H226) was 0.63 µM (active). For the same compound, the GI50 (NCI-H23) was > 100 µM (inactive), the GI50 (SK-MEL-28) was > 100 µM (inactive) and the GI50 (DMS-273) was > 100 µM (inactive). For the same compound, the GI50 (KM-20L2) was > 100 µM (inactive), the GI50 (SNB-78) was > 100 µM (inactive) and the GI50 (HCT-116) was > 100 µM (inactive). The GI50 (SF-268) was > 100 µM (inactive), the GI50 (SW-620) was > 100 µM (inactive) and the GI50 (KM12) was > 100 µM (inactive). For the same compound, the GI50 (UACC-257) was > 100 µM (inactive), the GI50 (SF-295) was > 100 µM (inactive) and the GI50 (SK-MEL-2) was > 100 µM (inactive). For the same compound, the GI50 (Malme-3M) was > 100 µM (inactive), the GI50 (HT-29) was > 100 µM (inactive) and the GI50 (LOX IMVI) was > 100 µM (inactive). For the same compound, the GI50 (A549) was > 100 µM (inactive), the GI50 (DMS-114) was > 100 µM (inactive) and the GI50 (UO-31) was > 100 µM (inactive). For the same compound, the GI50 (M14) was > 100 µM (inactive), the GI50 (COLO 205) was > 100 µM (inactive) and the GI50 (HL-60) was > 100 µM (inactive). The GI50 (EKVX) was > 100 µM (inactive), the GI50 (IGROV-1) was > 100 µM (inactive) and the GI50 (CCRF-CEM) was > 100 µM (inactive). For the same compound, the GI50 (DLD-1) was > 100 µM (inactive), the GI50 (SR) was > 100 µM (inactive) and the GI50 (SN12C) was > 100 µM (inactive). For the same compound, the GI50 (NCI-H460) was > 100 µM (inactive), the GI50 (MOLT-4) was > 100 µM (inactive) and the GI50 (HOP-18) was > 100 µM (inactive). For the same compound, the GI50 (ACHN) was > 100 µM (inactive) and the GI50 (OVCAR-4) was > 100 µM (inactive).

`CCCCCCCCCCCc1nnc(N)o1` was tested, and the GI50 (RXF 631) was 82 µM (inactive), the GI50 (786-0) was > 100 µM (inactive) and the GI50 (HOP-92) was > 100 µM (inactive). For the same compound, the GI50 (RPMI-8226) was > 100 µM (inactive), the GI50 (OVCAR-5) was > 100 µM (inactive) and the GI50 (K562) was 51.5 µM (inactive). The GI50 (SF-539) was > 100 µM (inactive), the GI50 (TK-10) was > 100 µM (inactive) and the GI50 (SNB-75) was > 100 µM (inactive). For the same compound, the GI50 (OVCAR-8) was > 100 µM (inactive), the GI50 (SNB-19) was 18.9 µM (inactive) and the GI50 (HOP-62) was > 100 µM (inactive). For the same compound, the GI50 (U-251) was > 100 µM (inactive), the GI50 (UACC-62) was > 100 µM (inactive) and the GI50 (XF498) was > 100 µM (inactive). For the same compound, the GI50 (HCT-15) was greater than 100 µM, the GI50 (OVCAR-3) was > 100 µM (inactive) and the GI50 (NCI-H226) was > 100 µM (inactive). The GI50 (NCI-H23) was > 100 µM (inactive), the GI50 (SK-MEL-28) was > 100 µM (inactive) and the GI50 (DMS-273) was > 100 µM (inactive). The GI50 (KM-20L2) was > 100 µM (inactive), the GI50 (SNB-78) was > 100 µM (inactive) and the GI50 (HCC 2998) was > 100 µM (inactive). The GI50 (HCT-116) was > 100 µM (inactive), the GI50 (SF-268) was 99.1 µM (inactive) and the GI50 (SW-620) was > 100 µM (inactive). For the same compound, the GI50 (KM12) was > 100 µM (inactive), the GI50 (UACC-257) was > 100 µM (inactive) and the GI50 (SF-295) was > 100 µM (inactive). For the same compound, the GI50 (SK-MEL-2) was > 100 µM (inactive), the GI50 (Malme-3M) was > 100 µM (inactive) and the GI50 (LXFL 529) was > 100 µM (inactive). For the same compound, the GI50 (HT-29) was > 100 µM (inactive), the GI50 (LOX IMVI) was > 100 µM (inactive) and the GI50 (A549) was > 100 µM (inactive). The GI50 (UO-31) was 13.6 µM (inactive), the GI50 (M14) was > 100 µM (inactive) and the GI50 (COLO 205) was > 100 µM (inactive). The GI50 (HL-60) was 37.2 µM (inactive), the GI50 (IGROV-1) was > 100 µM (inactive) and the GI50 (M19-MEL) was > 100 µM (inactive). The GI50 (DLD-1) was > 100 µM (inactive), the GI50 (SR) was > 10 µM (inactive) and the GI50 (SN12C) was > 100 µM (inactive). For the same compound, the GI50 (NCI-H460) was > 100 µM (inactive), the GI50 (MOLT-4) was 26.6 µM (inactive) and the GI50 (SK-OV-3) was > 100 µM (inactive). The GI50 (NCI-H522) was 67 µM (inactive), the GI50 (ACHN) was > 100 µM (inactive) and the GI50 (OVCAR-4) was 65.2 µM (inactive).

`Cc1ccc(-c2cc(=O)c3cc(C)c(C)c(C(=O)O)c3o2)cc1C` was tested, and the GI50 (RXF 631) was > 100 µM (inactive), the GI50 (786-0) was > 100 µM (inactive) and the GI50 (HOP-92) was > 100 µM (inactive). For the same compound, the GI50 (RPMI-8226) was > 100 µM (inactive), the GI50 (SK-MEL-5) was > 100 µM (inactive) and the GI50 (OVCAR-5) was > 100 µM (inactive). For the same compound, the GI50 (K562) was > 100 µM (inactive), the GI50 (SF-539) was > 100 µM (inactive) and the GI50 (TK-10) was > 100 µM (inactive). For the same compound, the GI50 (SNB-75) was > 100 µM (inactive), the GI50 (OVCAR-8) was > 100 µM (inactive) and the GI50 (CAKI-1) was 28.4 µM (inactive). For the same compound, the GI50 (SNB-19) was > 100 µM (inactive), the GI50 (HOP-62) was > 100 µM (inactive) and the GI50 (U-251) was > 100 µM (inactive). The GI50 (UACC-62) was > 100 µM (inactive), the GI50 (RXF 393) was > 100 µM (inactive) and the GI50 (HCT-15) was greater than 100 µM. For the same compound, the GI50 (OVCAR-3) was > 100 µM (inactive), the GI50 (NCI-H226) was > 100 µM (inactive) and the GI50 (NCI-H23) was > 100 µM (inactive). The GI50 (SK-MEL-28) was > 100 µM (inactive), the GI50 (DMS-273) was > 100 µM (inactive) and the GI50 (KM-20L2) was > 100 µM (inactive). For the same compound, the GI50 (SNB-78) was > 100 µM (inactive), the GI50 (HCC 2998) was > 100 µM (inactive) and the GI50 (HCT-116) was > 100 µM (inactive). The GI50 (SW-620) was > 100 µM (inactive), the GI50 (KM12) was > 100 µM (inactive) and the GI50 (UACC-257) was > 100 µM (inactive). For the same compound, the GI50 (SF-295) was > 100 µM (inactive), the GI50 (SK-MEL-2) was > 100 µM (inactive) and the GI50 (Malme-3M) was > 100 µM (inactive). For the same compound, the GI50 (LXFL 529) was > 100 µM (inactive), the GI50 (HT-29) was > 100 µM (inactive) and the GI50 (LOX IMVI) was > 100 µM (inactive). For the same compound, the GI50 (A549) was > 100 µM (inactive), the GI50 (DMS-114) was > 100 µM (inactive) and the GI50 (UO-31) was > 100 µM (inactive). For the same compound, the GI50 (M14) was > 100 µM (inactive), the GI50 (COLO 205) was > 100 µM (inactive) and the GI50 (HL-60) was > 100 µM (inactive). For the same compound, the GI50 (EKVX) was > 100 µM (inactive), the GI50 (IGROV-1) was > 100 µM (inactive) and the GI50 (CCRF-CEM) was > 100 µM (inactive). The GI50 (M19-MEL) was > 100 µM (inactive), the GI50 (DLD-1) was > 100 µM (inactive) and the GI50 (SR) was > 100 µM (inactive). The GI50 (SN12C) was > 100 µM (inactive), the GI50 (NCI-H460) was > 100 µM (inactive) and the GI50 (MOLT-4) was > 100 µM (inactive). The GI50 (SK-OV-3) was > 100 µM (inactive), the GI50 (HOP-18) was > 100 µM (inactive) and the GI50 (NCI-H522) was > 100 µM (inactive). The GI50 (ACHN) was > 100 µM (inactive) and the GI50 (OVCAR-4) was > 100 µM (inactive).
